Reference: patent US11370761B2, “Voltage-dependent T-type calcium channel inhibitor” (Nippon Chemiphar Co., Ltd., priority 2017, dated 2022)

Molecular target: T1, human Cav3.2 channel (Homo sapiens, UniProt O95180)
T1 construct: expressed in transfected cells
Experiment: Intracellular calcium concentration measurement in human Cav3.2 channel expressing stable cell line (Pharmacological Test 1)
Assay type: cell-based
Settings: HEK293 cells stably expressing human Cav3.2, Fluo-4 AM fluorescence, KCl stimulation; read-out: Cav3.2 channel inhibitory action
Excerpt: (1) Construction of Human Cav3.2 Channel Expressing Stable Cell Line
A sequence in which a HindIII site and a kozak sequence (GCCACC) was provided on a 5′ side of a human Cav3.2 channel open reading frame (ORF) gene and a KpnI site was provided on a 3′ side thereof was incorporated into pcDNA3.1(+) (Thermo Fisher Scientific #V790-20), and the resultant was transfected into a HEK293 cell (ATCC No. CRL-1573) according to a protocol of FuGENE (registered trademark) HD Transfection Reagent (Promega #E2311).
(2) Method of Measuring Intracellular Calcium Concentration
The human Cav3.2 channel expressing stable cell line prepared by the test method (1) was seeded in a 96-well plate using a Dulbecco's modified Eagle's medium (DMEM medium) containing 10% fetal bovine serum (FBS), followed by culturing 37° C. for 48 hours under a 5% CO2 condition. Thereafter, the medium was removed, and each well washed with an A buffer was treated with 80 μL of a fluorescent dye solution containing a liquid mixture of 22 μg of a calcium fluorescent indicator Fluo-4 AM (Dojindo Molecular Technologies, Inc., #F311), 20 μL of dimethyl sulfoxide (DMSO), 1 μL of 10% Pluronic F-127 (Thermo Fisher Scientific #P6866), and 4 mL of the A buffer. After being left to stand for 45 minutes at room temperature under a light shielding condition, the cells were washed with a B buffer. In DMSO having the same final concentration as the test compound as a negative control, and the test compound dissolved in DMSO to have a final concentration of 0.1%, each test compound concentration solution containing the B buffer was added to each well. The cells were left to stand for additional 15 minutes at room temperature under a light shielding condition, and were measured using microplate reader EnVision (PerkinElmer Co., Ltd.) by the following method. First, after measuring background fluorescence in each well, an ionophore was added, and baseline fluorescence was measured. Thereafter, B buffer containing added KCl at a concentration of 83.8 mM was added to each well, and an increase in fluorescence due to calcium influx caused by the stimulation was measured for 10 seconds. Inhibition percentage was calculated from the maximum fluorescence increase value from the baseline, and an IC50 value was calculated by plotting a logarithmic value of the test compound concentration and inhibition activity. The measurement was performed by observing fluorescence of 510 nm emitted when the cells were irradiated with excitation light of 485 nm.
A buffer: 140 mM NaCl, 5 mM KCl, 1 mM MgCl2, 0.5 mM CaCl2, 10 mM Glucose, 10 mM HEPES, pH 7.3
B buffer: potassium equilibrium potential: −92 mV

T1 sequence (O95180 whole entry): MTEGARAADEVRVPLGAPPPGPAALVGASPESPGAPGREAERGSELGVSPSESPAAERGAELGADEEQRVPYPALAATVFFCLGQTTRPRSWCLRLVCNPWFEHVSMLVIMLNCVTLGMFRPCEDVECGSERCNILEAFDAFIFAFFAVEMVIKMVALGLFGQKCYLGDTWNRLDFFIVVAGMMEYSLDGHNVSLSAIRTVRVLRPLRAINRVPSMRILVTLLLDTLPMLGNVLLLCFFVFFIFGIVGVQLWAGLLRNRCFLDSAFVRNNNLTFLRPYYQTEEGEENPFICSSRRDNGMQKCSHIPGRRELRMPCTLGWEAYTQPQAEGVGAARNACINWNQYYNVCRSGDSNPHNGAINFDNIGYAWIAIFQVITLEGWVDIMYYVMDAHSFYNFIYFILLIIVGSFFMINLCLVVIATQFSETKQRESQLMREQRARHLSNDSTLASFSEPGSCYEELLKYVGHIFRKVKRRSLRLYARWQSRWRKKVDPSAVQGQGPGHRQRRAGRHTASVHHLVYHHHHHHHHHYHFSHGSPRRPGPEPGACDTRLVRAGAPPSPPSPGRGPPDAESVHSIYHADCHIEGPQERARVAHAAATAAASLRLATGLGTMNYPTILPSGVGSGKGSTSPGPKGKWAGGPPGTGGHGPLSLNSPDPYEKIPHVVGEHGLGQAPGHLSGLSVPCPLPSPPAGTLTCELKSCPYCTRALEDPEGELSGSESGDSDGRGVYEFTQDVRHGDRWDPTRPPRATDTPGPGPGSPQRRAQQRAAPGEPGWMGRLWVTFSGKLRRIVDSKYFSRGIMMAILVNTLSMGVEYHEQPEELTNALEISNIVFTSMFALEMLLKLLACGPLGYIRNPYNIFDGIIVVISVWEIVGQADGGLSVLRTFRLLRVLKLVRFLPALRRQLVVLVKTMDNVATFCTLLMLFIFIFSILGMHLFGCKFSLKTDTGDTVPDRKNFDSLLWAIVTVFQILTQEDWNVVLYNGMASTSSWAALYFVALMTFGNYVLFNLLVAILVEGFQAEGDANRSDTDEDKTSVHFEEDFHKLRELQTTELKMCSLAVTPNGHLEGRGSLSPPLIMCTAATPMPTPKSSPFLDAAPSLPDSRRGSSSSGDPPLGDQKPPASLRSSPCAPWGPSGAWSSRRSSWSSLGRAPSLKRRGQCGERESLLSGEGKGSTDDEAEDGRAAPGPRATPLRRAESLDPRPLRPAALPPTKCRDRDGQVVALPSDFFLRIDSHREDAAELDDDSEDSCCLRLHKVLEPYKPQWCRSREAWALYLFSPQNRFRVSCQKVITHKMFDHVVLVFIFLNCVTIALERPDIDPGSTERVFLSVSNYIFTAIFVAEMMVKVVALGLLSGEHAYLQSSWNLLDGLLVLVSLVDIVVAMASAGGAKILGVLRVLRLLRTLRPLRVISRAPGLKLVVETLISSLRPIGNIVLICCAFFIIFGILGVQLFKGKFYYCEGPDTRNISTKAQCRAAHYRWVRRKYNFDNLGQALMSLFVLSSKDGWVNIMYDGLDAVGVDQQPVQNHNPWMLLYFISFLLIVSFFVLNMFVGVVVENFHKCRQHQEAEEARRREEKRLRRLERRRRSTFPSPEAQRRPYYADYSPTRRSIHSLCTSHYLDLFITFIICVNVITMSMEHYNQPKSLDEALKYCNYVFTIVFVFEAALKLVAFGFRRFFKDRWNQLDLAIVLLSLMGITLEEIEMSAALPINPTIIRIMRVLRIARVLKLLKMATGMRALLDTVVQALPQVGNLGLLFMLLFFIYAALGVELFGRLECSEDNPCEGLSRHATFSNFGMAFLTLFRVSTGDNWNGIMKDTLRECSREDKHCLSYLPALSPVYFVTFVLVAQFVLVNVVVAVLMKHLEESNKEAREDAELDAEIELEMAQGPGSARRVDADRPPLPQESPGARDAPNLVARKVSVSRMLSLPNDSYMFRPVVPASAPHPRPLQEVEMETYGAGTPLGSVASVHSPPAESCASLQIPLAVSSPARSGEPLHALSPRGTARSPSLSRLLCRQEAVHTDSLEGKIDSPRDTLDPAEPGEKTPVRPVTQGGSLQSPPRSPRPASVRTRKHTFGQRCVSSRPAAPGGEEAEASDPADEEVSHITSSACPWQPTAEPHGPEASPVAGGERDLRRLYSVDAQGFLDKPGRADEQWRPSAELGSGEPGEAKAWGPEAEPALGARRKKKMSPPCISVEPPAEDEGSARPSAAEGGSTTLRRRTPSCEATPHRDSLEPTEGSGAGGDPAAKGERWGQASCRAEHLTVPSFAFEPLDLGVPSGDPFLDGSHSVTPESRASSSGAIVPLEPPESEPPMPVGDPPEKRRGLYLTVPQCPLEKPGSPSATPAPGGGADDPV

| IC50 | SMILES |
| --- | --- |
| 100 to 1000 nM | COCC(NC(=O)[C@H]1C[C@@H]1c1nc2ccccc2[nH]1)C(=O)Nc1ccc(F)c(C(F)(F)F)c1 (single isomer, unassigned) [Example 32B] |
| ≤ 100 nM | CC(NC(=O)C1CC1c1nc2ccccc2[nH]1)C(=O)Nc1cccc(C(F)(F)F)c1 (single isomer, unassigned) [Example 38B, Trans-2-(1H-benzo[d]imidazol-2-yl)-N-(1-oxo-1-((3-(trifluoromethyl)phenyl)amino)propan-2-yl) cyclopropane-1-carboxamide] |
| 1000 to 10000 nM | O=C(Nc1ccc(C(F)(F)F)cc1)C1CCCN1C(=O)C1CC1c1nc2ccccc2[nH]1 (single isomer, unassigned) [Example 19B, Trans-1-(2-(1H-benzo[d]imidazol-2-yl)cyclopropane-1-carbonyl)-N-(4-(trifluoromethyl)phenyl)pyrrolidine-2-carboxamide] |
| 1000 to 10000 nM | CC(NC(=O)C1CC1c1nc2ccccc2[nH]1)C(=O)N(C)c1ccc(C(F)(F)F)cc1 (single isomer, unassigned) [Example 8B, Trans-2-(1H-benzo[d]imidazol-2-yl)-N-(1-(methyl(4-(trifluoromethyl)phenyl)amino)-1-oxopropan-2-yl) cyclopropane-1-carboxamide] |

Continued, molecule first:

| SMILES | IC50 |
| --- | --- |
| O=C(NC1(C(=O)Nc2cc(F)cc(C(F)(F)F)c2)CC1)[C@H]1C[C@@H]1c1nc2ccccc2[nH]1 [Example 42, 1-((1S, 2S)-2-(1H-Benzo[d]imidazol-2-yl)cyclopropane-1-carboxamido)-N-(3-fluoro-5-(trifluoromethyl)phenyl) cyclopropane-1-carboxamide] | 100 to 1000 nM |
| CC(NC(=O)C1CC1c1nc2ccccc2[nH]1)C(=O)NC1CN(C(=O)OC(C)(C)C)C1 (stereo not drawn) [Example 10, tert-Butyl trans-3-(2-(2-(1H-benzo[d]imidazol-2-yl)cyclopropane-1-carboxamido)propanamido)azetidine-1-carboxylate] | > 10000 nM |
| CCCc1ccc(NC(=O)C(C)NC(=O)C2CC2c2nc3ccccc3[nH]2)cc1 (single isomer, unassigned) [Example 1B, Trans-2-(1H-benzo[d]imidazol-2-yl)-N-(1-oxo-1-((4-propylphenyl)amino)propan-2-yl) cyclopropane-1-carboxamide] | 100 to 1000 nM |
| CC(C)Oc1ccc(NC(=O)C(C)NC(=O)C2CC2c2nc3ccccc3[nH]2)cc1 (stereo not drawn) [Example 3, Trans-2-(1H-benzo[d]imidazol-2-yl)-N-(1-((4-isopropoxyphenyl)amino)-1-oxopropan-2-yl) cyclopropane-1-carboxamide] | 1000 to 10000 nM |
| O=C(NC1(C(=O)Nc2cccc(C(F)(F)F)c2F)CC1)[C@H]1C[C@@H]1c1nc2ccccc2[nH]1 [Example 41, 1-((1S, 2S)-2-(1H-Benzo[d]imidazol-2-yl)cyclopropane-1-carboxamido)-N-(2-fluoro-3-(trifluoromethyl)phenyl) cyclopropane-1-carboxamide] | 100 to 1000 nM |
| CC(NC(=O)C1CC1c1nc2ccccc2[nH]1)C(=O)NCc1ccc(C(F)(F)F)nc1 (stereo not drawn) [Example 15, Trans-2-(1H-benzo[d]imidazol-2-yl)-N-(1-oxo-1-(((6-(trifluoromethyl)pyridin-3-yl)methyl)amino)propan-2-yl) cyclopropane-1-carboxamide] | 1000 to 10000 nM |
| O=C(NC1(C(=O)Nc2cccc(C(F)(F)F)c2)CCC1)[C@H]1C[C@@H]1c1nc2ccccc2[nH]1 [Example 36, 1-((1S, 2S)-2-(1H-Benzo[d]imidazol-2-yl)cyclopropane-1-carboxamido)-N-(3-(trifluoromethyl)phenyl) cyclobutane-1-carboxamide] | ≤ 100 nM |
| CC(NC(=O)C1CC1c1nc2ccccc2[nH]1)C(=O)NC1CCN(C(=O)OC(C)(C)C)CC1 (stereo not drawn) [Example 11, tert-Butyl trans-4-(2-(2-(1H-benzo[d]imidazol-2-yl)cyclopropane-1-carboxamido)propanamido)piperidine-1-carboxylate] | 1000 to 10000 nM |
